{
  "source": "patent US20020091086A1",
  "about": "“Peptides that block viral infectivity and methods of use thereof” (priority 1999, published 2002)",
  "key": {"recombinant gp120": {"molecular_target": "T1, recombinant gp120 (Human immunodeficiency virus type 1 group M subtype B, UniProt P03375)", "T1 construct": "recombinant proteins p24 and gp120 (gifts from the AIDS program, NCIB); purchased AIDS program, NCIB (gift, not bought)", "assay": "dialysis-based binding assay with 14C-GPG-NH2, gp120", "design": "species or system HIV-1", "details": "dialysis 2 days at 4° C. against 27.5 μM 14C-GPG-NH2; buffer 1.816", "description": "(§1) A dialysis-based binding assay was conducted using a dialysis membrane with a pore size of less than 10 kD. (Slide-A-Lyzer, Pierce). Fifty microliters of a 10 μM stock of the recombinant proteins p24 and gp120 (gifts from the AIDS program, NCIB) and BSA (Sigma) were introduced into separate dialysis membranes and the proteins were dialyzed at 4° C. for 2 days against a 500 ml solution composed of 150 mM NaCl and 50 mM Tris-HCl, pH 7.4 buffer and 27.5 μM of ^14C-GPG-NH2 (Amersham Ltd. UK). Subsequently, ten or five microliter aliquots of the dialyzed p24, gp120, and BSA were removed and mixed with 3 ml of ReadySafe (Beckman) in a scintillation vial. The C^14 was then detected by scintillation counting."}, "[1]": {"assay": "in vivo uptake, distribution and elimination of 14C GPG-NH2 in rats", "description": "Further, the in vivo uptake of small peptides was analyzed in rats. Rats were fed ^14C GPG-NH2 and, after various time points, blood, urine, and tissue samples were collected from the animals. Samples of rat urine taken eight hours after feeding and rat plasma taken 30 minutes, two hours, and eight hours after feeding were separated on a TLC plate, as shown in FIG. 7 (designated urine8, rp0.5, rp2, and rp^8, accordingly). All the tissues were kept in −20° C. after necropsy before any assay was performed. […] of the tissue samples were collected from three different locations of each organ analyzed and the organ tissue was subsequently dissolved in 250 μl of tissue solublizer (OptiSolv, LKB-Wallac) at 45° C. for four to six hours. The homogenized tissue solutions were decolorized by the addition of 50 μl of 30% H2O2 and 100 μl of isopropanol before 3 ml of 0.05M HCl acidified scintillation cocktail (Luma Gel, Lumac/3M) was added. The radioactivity was determined with a beta scintillation counter (LKB-Wallac 1218 Rack Beta). The free/unbound GPG-NH2 in the plasma was collected by precipitation with one part of plasma and two parts of ethanol followed by incubation at −70° C. for one hour and centrifugation at 20,000×g for 15 min at 4° C. Blood cell samples were diluted with PBS (in the ratio of 2 parts of blood cells to 1 part of PBS) before 10 μl of the mixture was sampled and analyzed as the tissue samples. Five to 20 μl of plasma and urine samples were directly mixed with 3 ml of Ready Safe (Beckman) fluid before quantification. The values are expressed in nCi.\nThe calculation of the maximum uptake was determined as follows. The total feeding was 800 μCi/kg rat body weight (160 μCi in total per animal). On the assumption that the GPG-NH2 and its metabolities were evenly distributed in the body, the GPG-NH2 present in tissues would be the average counts/g from different tissues from the total number of animals studied divided by the total number of animals and multiplied by the body weight and the factor 0.9. This factor is derived to omit the blood volume since an estimate of blood volume is roughly 10% of the average body weight. For example (from the data of animals 1-5), if the total body weight for five rats was […] and the radioactivity detected from various tissues was (35+466+495+366+331) or 1,693 nCi and the radioactivity detected from blood was (93+130) or 223 nCi and the radioactivity detected in urine was 4, 015 nCi, the maximal intake of the small peptide can be calculated as: […]\nIn FIG. 9, the distribution of radioactivity between blood cells, plasma protein bound, as well as, non protein bound (free) plasma radioactivity is shown. The elimination of radioactivity from the plasma fraction is depicted in FIG. 10. […] Protein bound radioactivity was assayed after precipitation with two parts of 99.5% ethanol. From the uptake and distribution data and the TLC data above, the minimal uptake of intact GPG-NH2 recovered from the plasma was calculated and, in one hour after feeding of the rats, at least 1% of fed GPG-NH2 could be recovered as protein free GPG-NH2 in the plasma."}, "recombinant p24": {"molecular_target": "T2, recombinant p24 (Human immunodeficiency virus type 1 group M subtype B, UniProt P04591)", "T2 construct": "purchased AIDS program, NCIB (gift, not bought)", "assay": "dialysis-based binding assay with 14C-GPG-NH2, p24", "design": "species or system HIV-1", "description": "as §1"}, "[2]": {"details": "rats fed 14C GPG-NH2 800 μCi/kg, sacrificed after 4 hours, avg of animals 1-5"}, "[3]": {"details": "rats fed 14C GPG-NH2 800 μCi/kg, sacrificed after 8 hours, avg of animals 6-10"}, "[4]": {"details": "rats fed 14C GPG-NH2 800 μCi/kg, sacrificed after 8 hours, individual animals 6-10"}},
  "note": "“And” between values parts separate entries of the source, which are not always exact repeats. Identical values can stand only once. Peptide text beside a SMILES is read from it.",
  "data": [
    {"smiles": "NCC(=O)N1CCC[C@H]1C(=O)NCC(N)=O", "note": "[GPG-NH2, glycyl-prolyl-glycine amide] (H-Gly-Pro-Gly-NH2)", "values": [
      {"measurement": "radioactive GPG-NH2 associated with gp120", "setting": "recombinant gp120", "value": 1.745, "unit": "μCi/ml"},
      {"measurement": "radioactivity in urine (used for uptake calculation)", "setting": "[1]; animals 1-5, 4 hours", "value": "4,015 nCi"},
      {"measurement": "radioactivity present in blood (calculated)", "setting": "[1]; animals 1-5, 4 hours, body weight 207 g, factor 0.1", "value": "blood (93 + 130) * 207 * 0.1 = 4,642 nCi"},
      {"measurement": "radioactivity present in tissue (whole body, calculated)", "setting": "[1]; animals 1-5, 4 hours, body weight 207 g, factor 0.9", "value": "(35 + 466 + 495 + 366 + 331)/5 * 207 * 0.9 = 63,240 nCi"},
      {"measurement": "change of radioactivity in the urine", "setting": "[1]; between hours 4 and 8", "value": "double"},
      {"measurement": "portion of urine radioactivity that was intact GPG-NH2", "setting": "[1]; electrospray mass spectrometry of TLC spot", "value": "only a small portion"},
      {"measurement": "fed GPG-NH2 recovered as protein free GPG-NH2 in the plasma", "setting": "[1]; one hour after feeding of the rats", "value": "at least 1%"},
      {"measurement": "maximal uptake", "setting": "[1]; oral feeding 800 μCi/kg, animals 1-5, 4 hours", "value": "(63.24 + 4.642 + 4.015)/800 * 0.207 = 0.4342, or 43% maximal"},
      {"measurement": "radioactivity in Blood cells, avg", "setting": "[1]; [2]", "value": "93 nCi/ml or g tissue"},
      {"measurement": "radioactivity in Brain, avg", "setting": "[1]; [2]", "value": "35 nCi/ml or g tissue"},
      {"measurement": "radioactivity in Kidneys, avg", "setting": "[1]; [2]", "value": "466 nCi/ml or g tissue"},
      {"measurement": "radioactivity in Liver, avg", "setting": "[1]; [2]", "value": "495 nCi/ml or g tissue"},
      {"measurement": "radioactivity in Plasma, avg", "setting": "[1]; [2]", "value": "130 nCi/ml or g tissue"},
      {"measurement": "radioactivity in Spleen, avg", "setting": "[1]; [2]", "value": "366 nCi/ml or g tissue"},
      {"measurement": "radioactivity in Thymus, avg", "setting": "[1]; [2]", "value": "331 nCi/ml or g tissue"},
      {"measurement": "radioactivity in Total urine, avg", "setting": "[1]; [2]", "value": "4,015 nCi/ml or g tissue"},
      {"measurement": "radioactivity in Urine, avg", "setting": "[1]; [2]", "value": "5,660 nCi/ml or g tissue"},
      {"measurement": "radioactivity in Blood cells, avg", "setting": "[1]; [3]", "value": 78, "unit": "nCi"},
      {"measurement": "radioactivity in Brain, avg", "setting": "[1]; [3]", "value": 30, "unit": "nCi"},
      {"measurement": "radioactivity in Kidneys, avg", "setting": "[1]; [3]", "value": 415, "unit": "nCi"},
      {"measurement": "radioactivity in Liver, avg", "setting": "[1]; [3]", "value": 494, "unit": "nCi"},
      {"measurement": "radioactivity in Plasma, avg", "setting": "[1]; [3]", "value": 135, "unit": "nCi"},
      {"measurement": "radioactivity in Spleen, avg", "setting": "[1]; [3]", "value": 293, "unit": "nCi"},
      {"measurement": "radioactivity in Thymus, avg", "setting": "[1]; [3]", "value": 334, "unit": "nCi"},
      {"measurement": "radioactivity in Total urine, avg", "setting": "[1]; [3]", "value": "8,426 nCi"},
      {"measurement": "radioactivity in Urine, avg", "setting": "[1]; [3]", "value": "3,525 nCi"},
      {"measurement": "radioactivity in Blood cells", "setting": "[1]; [4]", "value": "51 nCi and 72 nCi and 87 nCi and 71 nCi and 108 nCi"},
      {"measurement": "radioactivity in Brain", "setting": "[1]; [4]", "value": "43 nCi and 27 nCi and 28 nCi and 25 nCi and 29 nCi"},
      {"measurement": "radioactivity in Kidneys", "setting": "[1]; [4]", "value": "255 nCi and 488 nCi and 461 nCi and 401 nCi and 468 nCi"},
      {"measurement": "radioactivity in Liver", "setting": "[1]; [4]", "value": "537 nCi and 419 nCi and 478 nCi and 458 nCi and 578 nCi"},
      {"measurement": "radioactivity in Plasma", "setting": "[1]; [4]", "value": "138 nCi and 123 nCi and 135 nCi and 129 nCi and 148 nCi"},
      {"measurement": "radioactivity in Spleen", "setting": "[1]; [4]", "value": "307 nCi and 281 nCi and 257 nCi and 336 nCi and 285 nCi"},
      {"measurement": "radioactivity in Thymus", "setting": "[1]; [4]", "value": "340 nCi and 350 nCi and 323 nCi and 349 nCi and 311 nCi"},
      {"measurement": "radioactivity in Total urine", "setting": "[1]; [4]", "value": "6,463 nCi and 6,653 nCi and 11,173 nCi and 10,227 nCi and 7,613 nCi"},
      {"measurement": "radioactivity in Urine", "setting": "[1]; [4]", "value": "2,992 nCi and 5,040 nCi and 3,121 nCi and 4,297 nCi and 2,175 nCi"},
      {"measurement": "relative distribution of retained/immobilized GPG-NH2 and its metabolites in sampled tissues", "setting": "[1]; rats, oral", "value": "highest in the liver followed by the kidney, followed by the spleen, followed by the thymus, followed by the brain"},
      {"measurement": "radioactive GPG-NH2 associated with p24", "setting": "recombinant p24; dialysis 2 days at 4° C. against 27.5 μM 14C-GPG-NH2, buffer 1.816", "value": 13.712, "unit": "μCi/ml"},
      {"measurement": "times buffer, p24", "setting": "recombinant p24; dialysis against 27.5 μM 14C-GPG-NH2", "value": "7.5 times buffer and 7.551 times buffer"}
    ]}
  ]
}
